# Patent publication US20050197338A1, “Substituted pyrazole urea compounds for the treatment of inflammation” (priority 2003, published 2005)
# Molecular target: T1, human IKK-2 (rhIKK-2 homodimer) (Homo sapiens, UniProt O14920)
# T1 construct: FLAG (DYKDDDDKD) (C); made in house; host or cells: insect cells (baculovirus, pFastBac)
# T1 sequence (O14920 1-756): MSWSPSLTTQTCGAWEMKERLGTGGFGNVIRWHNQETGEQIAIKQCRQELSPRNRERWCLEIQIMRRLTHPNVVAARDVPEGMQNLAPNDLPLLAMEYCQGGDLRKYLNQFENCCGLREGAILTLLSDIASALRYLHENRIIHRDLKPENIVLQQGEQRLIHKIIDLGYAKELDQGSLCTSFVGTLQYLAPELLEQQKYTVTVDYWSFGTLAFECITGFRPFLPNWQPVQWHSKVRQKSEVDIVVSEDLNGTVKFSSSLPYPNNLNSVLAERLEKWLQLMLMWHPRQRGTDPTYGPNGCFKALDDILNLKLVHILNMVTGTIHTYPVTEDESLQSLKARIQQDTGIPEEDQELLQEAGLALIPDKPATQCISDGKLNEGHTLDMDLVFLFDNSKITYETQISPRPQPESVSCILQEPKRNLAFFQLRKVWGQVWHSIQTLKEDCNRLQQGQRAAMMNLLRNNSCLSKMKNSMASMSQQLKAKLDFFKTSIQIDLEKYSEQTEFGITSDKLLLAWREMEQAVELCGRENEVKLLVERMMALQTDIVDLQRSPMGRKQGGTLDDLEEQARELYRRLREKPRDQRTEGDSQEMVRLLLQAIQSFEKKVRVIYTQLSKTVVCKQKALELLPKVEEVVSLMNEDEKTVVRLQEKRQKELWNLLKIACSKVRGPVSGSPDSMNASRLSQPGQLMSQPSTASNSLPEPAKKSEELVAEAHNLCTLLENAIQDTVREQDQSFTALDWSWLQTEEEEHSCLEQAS
# Experiment: IKK-2 Resin Enzyme Assay (Human IKK-2 Enzyme Assay)
# Assay type: biochemical
# Details: human IKK-2, resin enzyme assay; read-out: IC50 (μM) hIKK-2
# Outline: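 C-terminally FLAG-tagged human IKK-2 homodimer, baculovirus-expressed in insect cells and anti-FLAG purified. Reaction mix: 5 μM biotinylated IκBα peptide (Ser32/Ser36 region), 1 μM ATP with [γ-33P]ATP, 2 mM MgCl2, 2 mM MnCl2, 10 mM NaF, 1 mM DTT, 25 mM HEPES pH 7.6. Incubated 30 min at 25 °C; IC50 derived.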
row,SMILES,IC50 [µM]
1,"NC(=O)Nc1cn(-c2ccc(Sc3ccccn3)cc2)nc1C(N)=O [Example 205, 1-(3-carbamoyl-1-(4-(pyridin-2-ylthio)phenyl)-1H-pyrazol-4-yl)urea]",1.13
2,"COc1ccc(-n2cc(NC(N)=O)c(C(N)=O)n2)cc1Cl [Example 209, 4-[(Aminocarbonyl)amino]-1-(3-chloro-4-methoxyphenyl)-1H-pyrazole-3-carboxamide]",1.04
3,"N#CCCc1cccc(-c2ccc(-n3cc(NC(N)=O)c(C(N)=O)n3)cc2)c1 [Example 186, 4-[(aminocarbonyl)amino]-1-[3′-(2-cyanoethyl)-1,1′-biphenyl-4-yl]-1H-pyrazole-3-carboxamide]",0.86
4,"NC(=O)Nc1cn(-c2ccc(-c3cc4ccccc4[nH]3)cc2)nc1C(N)=O [Example 141, 4-[(aminocarbonyl)amino]-1-[4-(1H-indol-2-yl)phenyl]-1H-pyrazole-3-carboxamide]",11.4
5,"N#Cc1ccc(-c2ccc(-n3cc(NC(N)=O)c(C(N)=O)n3)cc2)cc1 [Example 100, 4-[(aminocarbonyl)amino]-1-(4′-cyano-1,1′-biphenyl-4-yl)-1H-pyrazole-3-carboxamide]",1.15
6,"NC(=O)Nc1cn(-c2ccc(-c3ccc(C(=O)OCc4ccc(F)cc4)c(F)c3)cc2)nc1C(N)=O [Example 164, 4-fluorobenzyl 4′-{3-(aminocarbonyl)-4-[(aminocarbonyl)amino]-1H-pyrazol-1-yl}-3-fluoro-1,1′-biphenyl-4-carboxylate]",11.3
7,"CNC(=O)Nc1cn(-c2cccc(Br)c2)nc1C(N)=O [Example 15, 1-(3-bromophenyl)-4-{[(methylamino)carbonyl]amino}-1H-pyrazole-3-carboxamide]",8.05
8,"CN(C)CCN(C)C(=O)c1ccc(-c2ccc(-n3cc(NC(N)=O)c(C(N)=O)n3)cc2)cc1F [Example 160, 4-[(aminocarbonyl)amino]-1-(4′-{[[2-(dimethylamino)ethyl](methyl)amino]carbonyl}-3′-fluoro-1,1′-biphenyl-4-yl)-1H-pyrazole-3-carboxamide]",4.79
9,"NC(=O)Nc1cn(-c2cccc(-c3ccc(F)cc3O)c2)nc1C(N)=O [Example 92, 4-[(aminocarbonyl)amino]-1-(4′-fluoro-2′-hydroxy-1,1′-biphenyl-3-yl)-1H-pyrazole-3-carboxamide]",6.61
10,"NC(=O)Nc1cn(-c2ccc(-c3ccc(C(=O)OCc4cccc(F)c4)c(F)c3)cc2)nc1C(N)=O [Example 163, 3-fluorobenzyl 4′-{3-(aminocarbonyl)-4-[(aminocarbonyl)amino]-1H-pyrazol-1-yl}-3-fluoro-1,1′-biphenyl-4-carboxylate]",16.6
11,"NC(=O)Nc1cn(-c2cccc(-c3cc(F)ccc3O)c2)nc1C(N)=O [Example 93, 4-[(aminocarbonyl)amino]-1-(5′-fluoro-2′-hydroxy-1,1′-biphenyl-3-yl)-1H-pyrazole-3-carboxamide]",3.1
12,"CNC(=O)Nc1cn(-c2ccc(Br)cc2)nc1C(N)=O [Example 16, 1-(4-bromophenyl)-4-{[(methylamino)carbonyl]amino}-1H-pyrazole-3-carboxamide]",3.1
13,"CCOc1cc(-n2cc(NC(N)=O)c(C(N)=O)n2)ccc1Br [Example 3, 4-[(aminocarbonyl)amino]-1-(4-bromo-3-ethoxyphenyl)-1H-pyrazole-3-carboxamide]",1.35
14,"NC(=O)Nc1cn(-c2ccc(-c3ccccc3)cc2)nc1C(N)=O [Example 101, 4-[(aminocarbonyl)amino]-1-(1,1′-biphenyl-4-yl)-1H-pyrazole-3-carboxamide]",8.07
15,"NC(=O)Nc1cn(-c2ccc(-c3ccc(F)cc3O)cc2)nc1C(N)=O [Example 98, 4-[(aminocarbonyl)amino]-1-(4′-fluoro-2′-hydroxy-1,1′-biphenyl-4-yl)-1H-pyrazole-3-carboxamide]",1.04
16,"CC(C)(C)OC(=O)COc1cccc(-c2ccc(-n3cc(NC(N)=O)c(C(N)=O)n3)cc2)c1 [Example 174, tert-butyl [(4′-{3-(aminocarbonyl)-4-[(aminocarbonyl)amino]-1H-pyrazol-1-yl}-1,1′-biphenyl-3-yl)oxy]acetate]",3.67
17,"NC(=O)Nc1cn(-c2ccc(-c3ccc(C(=O)OCc4ccccc4F)c(F)c3)cc2)nc1C(N)=O [Example 162, 2-fluorobenzyl 4′-{3-(aminocarbonyl)-4-[(aminocarbonyl)amino]-1H-pyrazol-1-yl}-3-fluoro-1,1′-biphenyl-4-carboxylate]",13.7
18,"NC(=O)Nc1cn(-c2ccc(-c3ccc(-c4nnn[nH]4)cc3)cc2)nc1C(N)=O [Example 187, 4-[(aminocarbonyl)amino]-1-[4′-(1H-tetrazol-5-yl)-1,1′-biphenyl-4-yl]-1H-pyrazole-3-carboxamide]",0.821

# Compounds with a lower IC50, results first:
row,IC50 [µM],SMILES
1,0.75,"NC(=O)Nc1cn(-c2ccc(-c3cc(F)ccc3O)cc2)nc1C(N)=O [Example 99, 4-[(aminocarbonyl)amino]-1-(5′-fluoro-2′-hydroxy-1,1′-biphenyl-4-yl)-1H-pyrazole-3-carboxamide]"
2,0.457,"NC(=O)Nc1cn(-c2ccc(-c3cccc(O)c3)cc2F)nc1C(N)=O [Example 247, 4-[(aminocarbonyl)amino]-1-(3-fluoro-3′-hydroxy-1,1′-biphenyl-4-yl)-1H-pyrazole-3-carboxamide]"
3,0.378,"NC(=O)Nc1cn(-c2ccc(Br)c(F)c2)nc1C(N)=O [Example 225, 4-[(aminocarbonyl)amino]-1-(4-bromo-3-fluorophenyl)-1H-pyrazole-3-carboxamide]"
4,0.355,"NC(=O)Nc1cn(-c2ccc(-c3cccc(O)c3)c(Cl)c2)nc1C(N)=O [Example 7, 4-[(aminocarbonyl)amino]-1-(2-chloro-3′-hydroxy-1,1′-biphenyl-4-yl)-1H-pyrazole-3-carboxamide]"
5,0.322,"NC(=O)Nc1cn(-c2ccc(I)cc2)nc1C(N)=O [Example 215, 4-[(aminocarbonyl)amino]-1-(4-iodophenyl)-1H-pyrazole-3-carboxamide]"
6,0.31,"NC(=O)Nc1cn(-c2ccc(Br)cc2)nc1C(N)=O [Example 19, 1-(1-(4-bromophenyl)-3-carbamoyl-1H-pyrazol-4-yl)urea]"
7,0.307,"NC(=O)Nc1cn(-c2ccc(Br)c(C(F)(F)F)c2)nc1C(N)=O [Example 1, 4-[(aminocarbonyl)amino]-1-[4-bromo-3-(trifluoromethyl)phenyl]-1H-pyrazole-3-carboxamide]"
8,0.237,"NC(=O)Nc1cn(-c2ccc(S(=O)(=O)C3CCCCC3)cc2)nc1C(N)=O [Example 192, 1-(3-carbamoyl-1-(4-(cyclohexylsulfonyl)phenyl)-1H-pyrazol-4-yl)urea]"
9,0.22,"N#CCOc1ccc(F)cc1-c1cccc(-n2cc(NC(N)=O)c(C(N)=O)n2)c1 [Example 94, 4-[(aminocarbonyl)amino]-1-[2′-(cyanomethoxy)-5′-fluoro-1,1′-biphenyl-3-yl]-1H-pyrazole-3-carboxamide]"
10,0.18,"NC(=O)COc1cccc(-c2ccc(-n3cc(NC(N)=O)c(C(N)=O)n3)cc2)c1 [Example 175, 4-[(aminocarbonyl)amino]-1-[3′-(2-amino-2-oxoethoxy)-1,1′-biphenyl-4-yl]-1H-pyrazole-3-carboxamide]"
11,0.15,"N#CCOc1cc(F)ccc1-c1ccc(-n2cc(NC(N)=O)c(C(N)=O)n2)cc1 [Example 173, 4-[(aminocarbonyl)amino]-1-[2′-(cyanomethoxy)-4′-fluoro-1,1′-biphenyl-4-yl]-1H-pyrazole-3-carboxamide]"
12,0.15,"NC(=O)Nc1cn(-c2ccc(S(=O)(=O)c3ccccc3F)cc2)nc1C(N)=O [Example 194, 1-(1-(4-(2-fluorophenylsulfonyl)phenyl)-3-carbamoyl-1H-pyrazol-4-yl)urea]"
13,0.14,"NC(=O)Nc1cn(-c2ccc(-c3ccc(C(=O)O)c(F)c3)cc2)nc1C(N)=O [Example 97, 4′-{3-(aminocarbonyl)-4-[(aminocarbonyl)amino]-1H-pyrazol-1-yl}-3-fluoro-1,1′-biphenyl-4-carboxylic acid]"
14,0.0676,"Cc1cc(-n2cc(NC(N)=O)c(C(N)=O)n2)ccc1I [Example 8, 1-(4-iodo-3-methyl-phenyl)-4-ureido-1H-pyrazole-3-carboxylic acid amide]"
15,0.044,"N#CCOc1ccc(F)cc1-c1ccc(-n2cc(NC(N)=O)c(C(N)=O)n2)cc1 [Example 172, 4-[(aminocarbonyl)amino]-1-[2′-(cyanomethoxy)-5′-fluoro-1,1′-biphenyl-4-yl]-1H-pyrazole-3-carboxamide]"
16,0.013,"NC(=O)Nc1cn(-c2ccc(S(=O)(=O)c3ccc(F)cc3)cc2)nc1C(N)=O [Example 204, 1-(1-(4-(4-fluorophenylsulfonyl)phenyl)-3-carbamoyl-1H-pyrazol-4-yl)urea]"
